Test results as given in patent US9056804B2, “Urease inhibitor formulations” (Incitec Pivot Limited, priority 2011, dated 2015).

Assays:
[1] = test system: fish, algae and invertebrates; settings: cited from earlier work
[2] = test system: urease; assay: Soil-water suspension incubation, ammonium formed from urea (17 days); assay type: biochemical; settings: 72% inhibition at 50 μg/200 ml versus NBPT at 400 μg/200 ml
Method: The ammonium produced was measured as per Example 9.

| Compound | LC50 [1] | activity relative to NBPT [2] |
| --- | --- | --- |
| O=S1(=O)CCCC1 [tetramethylene sulfone] | greater than 1000 mg/l | – |
| NP(N)(=O)Nc1ccccc1[N+](=O)[O-] [Example 2-NPT, 2-nitrophenyl phosphoric triamide] | – | about eight times more active than NBPT |
